# Data as given in patent US20240374523A1, “STABILIZED APILIMOD COMPOSITIONS AND USES THEREOF” (Orphai Therapeutics Inc., priority 2021, published 2024).
# “Also recorded” adds a separate entry of the source. Counter-ions that a name gives are not always drawn. Like-named read-outs stand apart in the source and are kept apart here.
# Key:
# [1] = cited from earlier work
# [2] = PXRD of residual solids after the IDR experiment; format: physicochemical; conditions: pellet surface after IDR experiment, compared with input API
# Method: X-Ray Powder Diffraction (XRPD). […] Configuration on the incidental beam side: variable divergence slits (10 mm irradiated length), 0.04 rad Soller slits, fixed anti-scatter slit) (0.50°, and 10 mm beam mask. Configuration on the diffracted beam side: variable anti-scatter slit (10 mm observed length) and 0.02 rad Soller slit. Samples were mounted flat on zero-background Si wafers.
# At the end of the IDR analysis, the pellet surface was analyzed by PXRD and compared to its corresponding input API for any physical changes.
# [3] = tested on: synovial IL-12 and IL-23 expression; conditions: patients with rheumatoid arthritis, Phase II (Krauz et al. 2012); cited from earlier work
# active Crohn's disease = active Crohn's disease (Sands et al. 2010); cited from earlier work
# IL-12/IL-23 synthesis = conditions: oral administration, patients with psoriasis, open-label (Wada et al. 2012); cited from earlier work
# [4] = Solubility of apilimod vs pH in 0.1N HCl and Britton-Robinson buffers; format: physicochemical; conditions: for solubility at 3 days / solubility thermodynamic at 3 days: thermodynamic from solid; for solubility thermodynamic at 3 days: Britton-Robinson buffer
# Method: Next, the solubility of apilimod at various pH was evaluated. The samples were prepared at room temperature in 0.1N HCl (pH 1) and Britton-Robinson buffers (BRB) pH 2, 3, 4, 5, 6, 7 and 8. After 3 days, each sample was centrifuged for 30 min, the solution was filtered and the concentration of apilimod determined by HPLC analysis. HPLC analysis was carried out using an XTerra MS C18 (5 μm 4.6×150 mm) column and 18-minute gradient HPLC conditions.
# [5] = Kinetic solubility in FaSSIF (pH 6.5); format: physicochemical; conditions: FaSSIF pH 6.5, 1 hour
# Method: Additional kinetic solubility studies were carried out in Fasted State Simulated Intestinal Fluid (FaSSIF) at pH6.5 at ambient temperature and the results are shown in FIG. 3. FaSSIF helps reveal how an oral drug is likely to dissolve and potentially be absorbed in fluid from the upper intestine after drinking a glass of water. […] After 1 hour of stirring, all samples appeared to be hazy suspensions, but after 4 and 24 hours their appearance changed to a milky white suspension by PXRD analysis.
# [6] = Kinetic solubility in FaSSGF (pH 1.6); conditions: after test in FaSSGF
# Method: Kinetic solubility studies were carried out on the various apilimod salts provided in Table 1 in Fasted State Simulated Gastric Fluid (FaSSGF) at pH 1.6 at ambient temperature. FaSSGF is a dissolution medium that has the average acidic pH and similar osmolarity of fasted gastric fluid. FaSSGF that can help reveal how an oral drug is likely to behave in the stomach after drinking a glass of water. The stability, solubility and dissolution data generated from testing in FaSSGF can help identify critical factors influencing a drug's absorption in the fasted state, and in turn facilitate the selection of the appropriate solid state and formulation approach for a drug.
# [7] = Intrinsic dissolution rate (stationary disk, 0.01N HCl); format: physicochemical; set-up: Intrinsic Dissolution Rate free base equivalent: unit not given here; conditions: 37° C.; for Intrinsic Dissolution Rate free base equivalent: disk pressed at 3900 psi, 700 mL 0.01N HCl, paddle 50 rpm, UV 333 nm
# Method: Stationary disks for apilimod free base and the nine apilimod salts were prepared. Intrinsic dissolution rate of the free base and the nine salts were prepared from preparations at 3900 psi. Each disk was placed into a flat bottom vessel containing 700 mL of 0.01N HCl medium equipped with a Distek Dissolution bath, and a Distek cirvulator/heater set to 37°° C. with a paddle speed of 50 rpm. The Opt-Diss 405 system single analytical wavelength settings was 333 nm with a background wavelength setting of 400 nm and reading were taken every 1 minute to 35 minutes. […] The kinetic solubility of the salt behavior is unpredictable and the dramatic difference between the non-mesylate salts was an unexpected discovery in the behavior of the salts.
# [8] = aqueous solubility of the disalt; cited from earlier work
# [9] = pKa of the counter-acid, not of the apilimod salt
compound,measurement,setting,value
1-hydroxy-2-naphthoate,pKa of Acid (first value),[1]; [9],2.7
same,pKa of Acid (second value),[1]; [9],13.5
Cc1cccc(/C=N/Nc2cc(N3CCOCC3)nc(OCCc3ccccn3)n2)c1 [Apilimod],Residual Solids By XRPD,[2]; listed as Free base,Matches Input
same,Residual Solids By XRPD,[2]; listed as free base,match the XRPD pattern of the initial input material
same,effect on synovial IL-12 and IL-23 expression,[3],failed to alter synovial IL-12 and IL-23 expression
same,efficacy over placebo,active Crohn's disease,did not demonstrate efficacy over placebo
same,tolerability,active Crohn's disease,well tolerated
same,immunomodulatory activity,IL-12/IL-23 synthesis,showed immunomodulatory activity supporting the inhibition of IL-12/IL-23 synthesis
same,solubility at 3 days,"[4]; 0.1N HCl, pH 1, simulated gastric fluid, pH of approximately 1, read-out: solubility",> 10000 µg/mL
same,PXRD of Residuals Day 3,[4]; BRB pH 2,Phosphate salt
same,Conc Day 3,"[4]; BRB pH 2, medium pH 1.99, prep. 11 mg/mL, room temperature, Day 3 pH 2.75",137 µg/mL
same,PXRD of Residuals Day 3,[4]; BRB pH 3,Phosphate salt
same,PXRD of Residuals Day 3,[4]; BRB pH 4,"Free base, hydrate Group B"
same,PXRD of Residuals Day 3,[4]; BRB pH 5,"Free base, hydrate Group B"
same,PXRD of Residuals Day 3,[4]; BRB pH 6,"Free base, hydrate Group B"
same,PXRD of Residuals Day 3,[4]; BRB pH 7,"Free base, hydrate Group B"
same,PXRD of Residuals Day 3,[4]; BRB pH 8,"Free base, hydrate Group B"
same,solubility thermodynamic at 3 days,"[4]; aqueous buffer, BRB pH 2, medium pH 1.99, prep. 11 mg/mL, room temperature, Day 3 pH 2.75, read-out: Conc Day 3",137 µg/mL
same,solubility thermodynamic at 3 days,"[4]; aqueous buffer, BRB pH 3, medium pH 2.88, prep. 2.8 mg/mL, room temperature, Day 3 pH 3.61, read-out: Conc Day 3",17.3 µg/mL
same,solubility thermodynamic at 3 days,"[4]; aqueous buffer, BRB pH 4, medium pH 4.11, prep. 2.8 mg/mL, room temperature, Day 3 pH 4.22, read-out: Conc Day 3",2.3 µg/mL
same,solubility thermodynamic at 3 days,"[4]; aqueous buffer, BRB pH 5, medium pH 5.04, prep. 2.8 mg/mL, room temperature, Day 3 pH 5.08, read-out: Conc Day 3",0.2 µg/mL
same,solubility thermodynamic at 3 days,"[4]; aqueous buffer, BRB pH 6, medium pH 6.15, prep. 2.7 mg/mL, room temperature, Day 3 pH 6.18, read-out: Conc Day 3",< 0.1 µg/mL
same,solubility thermodynamic at 3 days,"[4]; aqueous buffer, BRB pH 7, medium pH 7.18, prep. 2.7 mg/mL, room temperature, Day 3 pH 7.21, read-out: Conc Day 3",< 0.1 µg/mL
same,solubility thermodynamic at 3 days,"[4]; pH 7.9, aqueous buffer, BRB pH 8, medium pH 7.90, prep. 2.8 mg/mL, room temperature, Day 3 pH 8.01, read-out: Conc Day 3",< 0.1 µg/mL
same,PXRD of Residuals Day 3,[4]; pH 1 (0.1N HCl),In solution; no excess solid
same,solubility at 3 days,"[4]; simulated gastric fluid, pH 1 (0.1N HCl), medium pH 1.08, prep. 11 mg/mL, room temperature, Day 3 pH 1.44, read-out: Conc Day 3",> 10700 µg/mL
Cc1cccc(/C=N/Nc2cc(N3CCOCC3)nc(OCCc3ccccn3)n2)c1 [HCl],Residual Solids By XRPD,[2],match the XRPD pattern of the initial input material; also recorded: Matches Input
same,solubility in FaSSIF relative to other forms,[5],higher solubility at 1 hour compared to the other salts and the freebase
same,pKa of acid,"[1]; strong acids required for disalt formation, per the '436 patent",−4.5
Cc1cccc(/C=N/Nc2cc(N3CCOCC3)nc(OCCc3ccccn3)n2)c1.Cc1cccc(/C=N/Nc2cc(N3CCOCC3)nc(OCCc3ccccn3)n2)c1.O=C(O)/C=C/C(=O)O [Hemi-fumarate],Residual Solids By XRPD,[2],Matches Input
same,Residual Solids By XRPD,[2]; listed as hemi-fumarate,match the XRPD pattern of the initial input material
same,residues by powder diffraction (PXRD),[6],"crystalline, and matched input salts"
same,pKa of Acid (first value),[1]; [9],3.0
same,pKa of Acid (second value),[1]; [9],4.4
same,intrinsic dissolution rate relative to D/L-Lactate and HCl salts,[7]; 0.01N HCl,less that 10-times lower
Cc1cccc(/C=N/Nc2cc(N3CCOCC3)nc(OCCc3ccccn3)n2)c1.O=C(O)CC(=O)O [Malonate],Residual Solids By XRPD,[2],Matches Input
same,Residual Solids By XRPD,[2]; listed as malonate,match the XRPD pattern of the initial input material
same,pKa of Acid (first value),[1]; [9],2.8
same,pKa of Acid (second value),[1]; [9],5.7
Cc1cccc(/C=N/Nc2cc(N3CCOCC3)nc(OCCc3ccccn3)n2)c1.O=P(O)(O)O [Phosphate],Residual Solids By XRPD,[2],Matches Input
same,Residual Solids By XRPD,[2]; listed as phosphate,match the XRPD pattern of the initial input material
same,pKa of Acid (first value),[1]; [9],2.0
same,pKa of Acid (second value),[1]; [9],7.1
same,pKa of Acid (third value),[1]; [9],12.3
Cc1cccc(/C=N/Nc2cc(N3CCOCC3)nc(OCCc3ccccn3)n2)c1.O=C(O)CCC(=O)O [Succinate],pKa of Acid (first value),[1]; [9],4.2
same,pKa of Acid (second value),[1]; [9],5.6
Cc1cccc(C=NNc2cc(N3CCOCC3)nc(OCCc3ccccn3)n2)c1.Cl.Cl [dichloride],solubility in water,[8],213000 µg/mL
Glycolate,Residual Solids By XRPD,[2],consistent with the input material and the poorly crystalline phase
same,pKa of Acid (first value),[1]; [9],3.3
same,Intrinsic Dissolution Rate free base equivalent,[7],0.2670
L-Tartrate,Residual Solids By XRPD,[2],match the XRPD pattern of the initial input material; also recorded: Matches Input
same,pKa of Acid (first value),[1]; [9],3.0
same,pKa of Acid (second value),[1]; [9],4.4
same,Intrinsic Dissolution Rate free base equivalent,[7],0.3399
Maleate,Residual Solids By XRPD,[2],Matches Input
same,Residual Solids By XRPD,[2]; listed as maleate,match the XRPD pattern of the initial input material
same,residues by powder diffraction (PXRD),[6],"crystalline, and matched input salts"
same,pKa of Acid (first value),[1]; [9],1.9
same,pKa of Acid (second value),[1]; [9],6.2
same,Intrinsic Dissolution Rate free base equivalent,[7],0.0871
